The text below walks through data of patent US7264921B2, “No synthase assay particles and method” (GE Healthcare UK Limited, priority 2001, dated 2007).

The target in assay [1] is T1, iNOS (Mus musculus, UniProt P29477). Briefly: iNOS SPA enzyme assay, effect of solvents. The class given is biochemical, murine. Also on record: purchased Cayman Chemical Company 60864. As to conditions: for Time (mins) cpm, 0: 0 min; for Time (mins) cpm, 5: 5 min; for Time (mins) cpm, 10: 10 min; for Time (mins) cpm, 20: 20 min; for % change in ratio: versus water. The procedure:
The effect of using different solvents to dissolve test inhibitor compounds was tested, using the assay conditions as described in Example 4 above. […] Appropriate ‘experimental controls’ should therefore be used in all experiments.

For assay [2], the target named is T1, iNOS. Put plainly: biochemical.
Experimental: Reaction conditions and data measurement were as described in Example 3 above, using 10 μl of iNOS (Cayman Chemical Company, Catalogue Number 60864) enzyme equivalent to 0.038 units/well.
The assay conditions were as described in Example 4 above employing a range of inhibitor concentrations.
Assay [3] has as its target T1, iNOS. Briefly: iNOS enzyme assay, competition experiment I (LEADseeker beads, 14C arginine). The class given is biochemical, murine. Also on record: purchased Cayman Chemical Company 60864. Particulars: from dose response curve FIG. 8; 1 hour room temperature; read-out: IC50 (50% inhibition of the enzyme). On the procedure:
The preferential capture of arginine compared to citrulline can be utilised in a signal decrease assay. The assay is performed in a 3074 Costar 384 well plate Enzyme (iNOS murine macrophage, recombinant. Cayman catalogue no. 60864, 112 units/ml) is diluted 10 times in assay buffer (1.2 mM NADPH, 3.6 mM DTT, 4.8 uM FAD, 4.8 uM FMN, 4.8 uM biopterin in 50 mM TRIS pH 7.5. Diluted enzyme (10 μl) is incubated with 1.5 μl inhibitor/agonist dissolved in 100% DMSO along with 10 μl ^14C arginine tracer (APBiotech, CFB63, 300 mCi/mMol stock solution diluted in assay buffer to 100,000-150,000 cpm in 10 μl) for 1 hour at room temperature, protected from light. 10 μl LEADseeker beads suspended in a “stop” solution (360 μM aminoguanidine, 20 mM EDTA, pH 8) to 100 mg/ml (i.e 10 μl=1 mg/well) are added and the mixture incubated at room temperature for at least 2 hours. Control reactions were carried out by replacing the inhibitor with 1.5 μl water. The results are read by counting in LEADseeker™ (binning at 2×2, Q coincidence and imaged for 5 mins).
The baseline was determined using 1.5 μl 1 mM aminoguanidine (final concentration 70 μM) and maximum response using 1.5 μl 30 mM aminoguanidine (final concentration).

Structures can show the parent of a compound that is named as a salt.

For the compound `C[S+](C)[O-]` [DMSO], on iNOS [1] (1% solvent), the “Ratio Time 0/20 mins” value worked out at 6.39; the “Time (mins) cpm, 0” value is on record as 10324 cpm; the “Time (mins) cpm, 5” value was determined as 7128 cpm; the “Time (mins) cpm, 10” value was found to be 4330 cpm. Moreover, on iNOS [1] (1% solvent), the “Time (mins) cpm, 20” value came out at 1615 cpm and the “% change in ratio” value was found to be 10%. In addition, on iNOS [1] (5% solvent), the “Ratio Time 0/20 mins” value amounted to 5.12; the “Time (mins) cpm, 0” value came out at 8530 cpm; the “Time (mins) cpm, 5” value is recorded as 4166 cpm; the “Time (mins) cpm, 10” value stood at 4453 cpm. Also, at iNOS [1] (5% solvent), the “Time (mins) cpm, 20” value is given as 1665 cpm and the “% change in ratio” value is given as 28%. At iNOS [1] (10% solvent), the “Ratio Time 0/20 mins” value came out at 3.10; the “Time (mins) cpm, 0” value came out at 6630 cpm; the “Time (mins) cpm, 5” value is recorded as 3884 cpm; the “Time (mins) cpm, 10” value amounted to 3666 cpm. At iNOS [1] (10% solvent), the “Time (mins) cpm, 20” value was 2138 cpm and the “% change in ratio” value is listed as 56%.

By IC50 is commonly meant the midpoint of a concentration-inhibition curve. `CCSC(=N)N` [SEITU, 2-ethyl-2-thiopseudourea hydrobromide]: the IC50 against iNOS [2] is 0.032 µM.

`CC(C)=O` [acetone]: at iNOS [1] (1% solvent), the “Ratio Time 0/20 mins” value turned out to be 6.54; the “Time (mins) cpm, 0” value was 12884 cpm; the “Time (mins) cpm, 5” value worked out at 8509 cpm; the “Time (mins) cpm, 10” value came to 5169 cpm. Besides, at iNOS [1] (1% solvent), the “Time (mins) cpm, 20” value is 1971 cpm and the “% change in ratio” value came out at 8%. For the same compound, at iNOS [1] (5% solvent), the “Ratio Time 0/20 mins” value is 4.78; the “Time (mins) cpm, 0” value was 12431 cpm; the “Time (mins) cpm, 5” value is on record as 8409 cpm; the “Time (mins) cpm, 10” value is recorded as 6708 cpm. Moreover, on iNOS [1] (5% solvent), the “Time (mins) cpm, 20” value turned out to be 2601 cpm and the “% change in ratio” value was 33%. Further, on iNOS [1] (10% solvent), the “Ratio Time 0/20 mins” value was determined as 3.19; the “Time (mins) cpm, 0” value was 10201 cpm; the “Time (mins) cpm, 5” value is given as 6255 cpm; the “Time (mins) cpm, 10” value came out at 6464 cpm. Further, on iNOS [1] (10% solvent), the “Time (mins) cpm, 20” value is on record as 3193 cpm and the “% change in ratio” value turned out to be 55%.

With `N=C(N)NN` [aminoguanidine], at iNOS [3], the IC50 is roughly 500 µM.

For `CCO` [ethanol], at iNOS [1] (1% solvent), the “Ratio Time 0/20 mins” value was determined as 6.57; the “Time (mins) cpm, 0” value is recorded as 13409 cpm; the “Time (mins) cpm, 5” value is recorded as 9004 cpm; the “Time (mins) cpm, 10” value is reported as 5580 cpm. For the same compound, at iNOS [1] (1% solvent), the “Time (mins) cpm, 20” value came out at 2040 cpm and the “% change in ratio” value is given as 8%. At iNOS [1] (5% solvent), the “Ratio Time 0/20 mins” value is 4.19; the “Time (mins) cpm, 0” value is 13248 cpm; the “Time (mins) cpm, 5” value worked out at 7465 cpm; the “Time (mins) cpm, 10” value is on record as 6596 cpm. On iNOS [1] (5% solvent), the “Time (mins) cpm, 20” value came out at 3161 cpm and the “% change in ratio” value is 41%. For the same compound, on iNOS [1] (10% solvent), the “Ratio Time 0/20 mins” value is given as 3.23; the “Time (mins) cpm, 0” value is on record as 12008 cpm; the “Time (mins) cpm, 5” value came out at 6316 cpm; the “Time (mins) cpm, 10” value is reported as 5987 cpm. Besides, at iNOS [1] (10% solvent), the “Time (mins) cpm, 20” value is 3715 cpm and the “% change in ratio” value is 54%.

Take `CO` [methanol]: on iNOS [1] (1% solvent), the “Ratio Time 0/20 mins” value amounted to 7.56; the “Time (mins) cpm, 0” value is 14914 cpm; the “Time (mins) cpm, 5” value was found to be 8639 cpm; the “Time (mins) cpm, 10” value was found to be 4989 cpm. The “Time (mins) cpm, 20” value at iNOS [1] (1% solvent) was determined as 1973 cpm. Further, at iNOS [1] (5% solvent), the “Ratio Time 0/20 mins” value was determined as 7.13; the “Time (mins) cpm, 0” value is reported as 15317 cpm; the “Time (mins) cpm, 5” value is 7939 cpm; the “Time (mins) cpm, 10” value is on record as 5466 cpm. Further, the “Time (mins) cpm, 20” value at iNOS [1] (5% solvent) came out at 2147 cpm. Further, at iNOS [1] (10% solvent), the “Ratio Time 0/20 mins” value amounted to 6.32; the “Time (mins) cpm, 0” value was 12488 cpm; the “Time (mins) cpm, 5” value was 6631 cpm; the “Time (mins) cpm, 10” value is 4698 cpm. Further, at iNOS [1] (10% solvent), the “Time (mins) cpm, 20” value is 1975 cpm and the “% change in ratio” value is 10%.
